Experimental data published in patent publication US20230009608A1, “GRK2 INHIBITORS AND USES THEREOF” (Cygnal Therapeutics, Inc., priority 2020, published 2023).
Read-outs that look alike come from different tables or passages of the source.

Legend:
[1] = system: PAXF1657 control empty vector cell line; assay: 7-day proliferation assay, PAXF1657 control empty vector cell line (Example 9); format: cell-based; settings: 168 h; Cell Line: PAXF1657 empty vector (EV) cell line; 7-day; read-out: C: 7-day proliferation assay: IC50 GeoMean
In short: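 Cells plated at 500 per well and attached overnight. Next, 10-point inhibitor series added (30 μM-0.0002 μM, 0.3% DMSO) and a day-0 viability plate read. Then, after 3 days, medium with fresh compound. Finally, viability after 4 more days via CellTiter-Glo.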

GRK2 = target: T1, GRK2 (Homo sapiens, UniProt P25098); assay: ADPGlo GRK2 Inhibition Assay (Example 8); format: biochemical; settings: read-out: A: Enzymatic GRK2: IC50 (nM) (Example 8)
T1 construct: purchased SignalChem A14-10G
T1 sequence (P25098 1-689): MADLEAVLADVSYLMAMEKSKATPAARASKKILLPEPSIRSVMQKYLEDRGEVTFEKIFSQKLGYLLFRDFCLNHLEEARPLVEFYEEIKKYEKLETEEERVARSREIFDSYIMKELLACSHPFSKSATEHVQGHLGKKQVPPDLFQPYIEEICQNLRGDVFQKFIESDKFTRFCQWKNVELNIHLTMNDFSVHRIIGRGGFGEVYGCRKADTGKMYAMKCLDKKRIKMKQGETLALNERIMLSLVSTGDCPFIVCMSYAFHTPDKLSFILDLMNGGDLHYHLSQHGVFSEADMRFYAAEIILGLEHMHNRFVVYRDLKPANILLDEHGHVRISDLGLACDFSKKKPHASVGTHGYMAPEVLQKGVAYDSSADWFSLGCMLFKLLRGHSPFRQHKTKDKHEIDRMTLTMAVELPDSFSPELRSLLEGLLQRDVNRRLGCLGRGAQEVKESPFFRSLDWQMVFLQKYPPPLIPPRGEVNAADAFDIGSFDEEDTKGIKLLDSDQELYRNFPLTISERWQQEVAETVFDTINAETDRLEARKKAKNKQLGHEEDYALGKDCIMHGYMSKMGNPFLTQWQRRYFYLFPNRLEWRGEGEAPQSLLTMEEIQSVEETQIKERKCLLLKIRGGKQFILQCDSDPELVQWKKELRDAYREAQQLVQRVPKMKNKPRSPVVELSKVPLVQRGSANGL
In short: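 GRK2 (15 nM 2× enzyme solution) was preincubated 15 min with compound, then reacted 180 min at room temperature with 2× mix of 20 μM ATP plus GRKtide in HEPES pH 7.5, MgCl2, Tween-20, DTT. ADP was detected by ADP-Glo luminescence. Percent inhibition was normalised to enzyme and no-enzyme controls, with dose-response curves from threefold dilutions starting at 100 μM.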

[2] = Enzyme Assay A, ADPGlo (Example 8)

Row | IC50 (GRK2; ADPGlo GRK2 enzyme assay) | IC50 (GRK2; [2]) | Compound | IC50 [1]
1 |  | 65.9 nM | Cn1c(CNc2cccc(C(=O)N[C@@H](CCO)c3ccccc3)c2)nnc1-c1ccncn1 | 13100 nM
2 | 54.7 nM |  | Cn1c(CNc2cccc(C(=O)NCC3COc4ccccc43)c2)nnc1-c1ccncn1 (stereo not drawn) | > 5210 nM
3 |  | 13 nM | Cc1ccncc1CNC(=O)c1cccc(NCc2nnc(-c3ccncn3)n2C)c1 | 557 nM
4 |  | 59 nM | Cn1c(CNc2cccc(C(=O)NCc3ncnn3-c3ccccc3)c2)nnc1-c1ccncn1 | > 10000 nM
5 |  | 43 nM | Cn1c(CNc2cccc(C(=O)NCc3cccc(OCC(F)F)c3)c2)nnc1-c1ccncn1 | > 10000 nM
6 |  | 22 nM | Cn1c(CNc2cccc(C(=O)NC3CCOc4ccccc43)c2)nnc1-c1ccncn1 (stereo not drawn) | 563 nM
7 |  | 9.1 nM | Cn1c(CNc2cccc(C(=O)NCc3ccncc3Cl)c2)nnc1-c1ccncn1 [drawing 276] | 4060 nM
8 |  | 37 nM | Cn1c(CNc2cccc(C(=O)NC(CCO)c3cccc(F)c3)c2)nnc1-c1ccncn1 (stereo not drawn) | > 10000 nM
9 | 65.8 nM |  | Cn1c(CNc2cccc(C(=O)NCc3ccccc3N3CCNCC3)c2)nnc1-c1ccncn1 | 7890 nM
10 |  | 370 nM | CCn1ncnc1CNC(=O)c1cccc(NCc2nnc(-c3ccncn3)n2C)c1 | > 10000 nM
11 |  | 60.9 nM | COc1ccc2c(c1)OCC[C@H]2NC(=O)c1cccc(NCc2nnc(-c3ccncn3)n2C)c1 | 485 nM
12 | 13.2 nM |  | Cn1c(CNc2cccc(C(=O)NCc3cccc4c3OCO4)c2)nnc1-c1ccncn1 | 681 nM
13 |  | 26.1 nM | COc1cccc2c1OCC[C@H]2NC(=O)c1cccc(NCc2nnc(-c3ccncn3)n2C)c1 | 7740 nM
14 |  | 34 nM | Cn1c(CNc2cccc(C(=O)NC(CO)c3cccc(C(F)(F)F)c3)c2)nnc1-c1ccncn1 (stereo not drawn) | > 10000 nM
15 |  | 420 nM | C[C@H](NC(=O)c1cccc(NCc2nnc(-c3ccncn3)n2C)c1)c1cccnc1 [drawing 345] | > 8570 nM
16 |  | 430 nM | Cc1ccnc(CNC(=O)c2cccc(NCc3nnc(-c4ccncn4)n3C)c2)c1 | > 10000 nM
17 | 2.41 nM |  | COc1cccc([C@H](C)NC(=O)c2cccc(NCc3nnc(-c4ccncn4)n3CCO)c2)c1 | 30.7 nM
18 | 30 nM |  | Cn1c(CNc2cccc(C(=O)NCc3ccccc3-n3ccnc3)c2)nnc1-c1ccncn1 | 1150 nM
19 |  | 29 nM | COc1c(C)cccc1CNC(=O)c1cccc(NCc2nnc(-c3ccncn3)n2C)c1 | 2060 nM
20 |  | 16 nM | Cc1ncccc1CNC(=O)c1cccc(NCc2nnc(-c3ccncn3)n2C)c1 | 1490 nM
21 | 8.2 nM |  | COc1cccc(C)c1CNC(=O)c1cccc(NCc2nnc(-c3ccncn3)n2C)c1 | 246 nM
22 | 43.4 nM |  | Cn1c(CNc2cccc(C(=O)N[C@H](CO)c3cc(F)ccc3F)c2)nnc1-c1ccncn1 | > 30000 nM
23 |  | 36 nM | COCC(NC(=O)c1cccc(NCc2nnc(-c3ccncn3)n2C)c1)c1ccccc1 (stereo not drawn) | > 10000 nM
24 |  | 11 nM | CC(NC(=O)c1cccc(NCc2nnc(-c3ccncn3)n2C)c1)c1ccncc1 (stereo not drawn) | 2150 nM
25 | 63.5 nM |  | CN1Cc2ccccc2C(NC(=O)c2cccc(NCc3nnc(-c4ccncn4)n3C)c2)C1=O (stereo not drawn) | > 1900 nM
26 | 67.5 nM |  | COc1ccc(C)nc1CNC(=O)c1cccc(NCc2nnc(-c3ccncn3)n2C)c1 | > 12400 nM
27 | 16.2 nM |  | Cc1cncc(C(C)NC(=O)c2cccc(NCc3nnc(-c4ccncn4)n3C)c2)c1 (stereo not drawn) | 784 nM
28 | 63.7 nM |  | Cn1c(CNc2cccc(C(=O)NCc3ccc(F)c(F)c3)c2)nnc1-c1ccncn1 | 9330 nM

The next lines start with the compound.

Row | Compound | IC50 (GRK2; ADPGlo GRK2 enzyme assay) | IC50 (GRK2; [2]) | IC50 [1]
29 | COc1cccc([C@H](C)NC(=O)c2ccnc(NCc3nnc(-c4ccncn4)n3C)c2)c1 | 125 nM |  | 8000 nM
30 | CNS(=O)(=O)c1cccc(F)c1CNC(=O)c1cccc(NCc2nnc(-c3ccncc3F)n2C)c1 |  | 33.9 nM | 2700 nM
31 | Cn1c(CNc2cc(C(=O)N[C@H]3COCc4ccccc43)ccn2)nnc1-c1ccncn1 | 71.1 nM |  | 11000 nM
32 | O=C(N[C@H]1COc2cc(F)ccc21)c1cccc(NCc2nnc(-c3ccncc3)[nH]2)c1 |  | 27.9 nM | 4070 nM
33 | COc1ccc2c(c1)[C@H](NC(=O)c1cccc(NCc3nnc(-c4ccncn4)n3C)c1)CCO2 |  | 15.2 nM | > 30000 nM
34 | Cc1cc(C)c(CNC(=O)c2cccc(NCc3nnc(-c4ccncn4)n3C)c2)cn1 | 17.8 nM |  | 803 nM
35 | Cn1c(CNc2cccc(C(=O)NCc3ccc4c(c3)CCO4)c2)nnc1-c1ccncn1 |  | 16 nM | 1670 nM
36 | Cn1c(CNc2cccc(C(=O)NCc3ccccc3CN3CCCC3=O)c2)nnc1-c1ccncn1 |  | 49 nM | > 10000 nM
37 | CNS(=O)(=O)c1cccc(F)c1CNC(=O)c1cccc(NCc2nnc(-c3ccncc3)n2C)c1 |  | 15.2 nM | 1240 nM
38 | C[C@H](NC(=O)c1cccc(NCc2nnc(-c3ccncc3F)n2C)c1)c1ncccc1Cl | 52.8 nM |  | 1030 nM
39 | Cc1ccc2c(c1)C(NC(=O)c1cccc(NCc3nnc(-c4ccncn4)n3C)c1)CO2 (stereo not drawn) | 18.8 nM |  | 332 nM
40 | COc1ncc(Br)cc1CNC(=O)c1cccc(NCc2nnc(-c3ccncc3)n2CCO)c1 | 7.15 nM |  | 15100 nM
41 | O=C(N[C@H]1COc2cc(F)ccc21)c1cccc(NCc2nnc(-c3ccncc3)n2CCO)c1 |  | 23.2 nM | > 30000 nM
42 | CCc1cnccc1CNC(=O)c1cccc(NCc2nnc(-c3ccncc3)n2CCO)c1 | 14.3 nM |  | > 30000 nM
43 | Cn1c(CNc2cccc(C(=O)NC3COc4ccc(F)cc43)c2)nnc1-c1ccncn1 (stereo not drawn) | 26.6 nM |  | 1260 nM
44 | Cn1c(CNc2cccc(C(=O)N[C@@H]3COCc4ccccc43)c2)nnc1-c1ccncc1F |  | 227 nM | > 30000 nM
45 | Cc1cnc(CNC(=O)c2cccc(NCc3nnc(-c4ccncn4)n3C)c2)c(C)c1 |  | 10 nM | > 10000 nM
46 | Cn1c(CNc2cccc(C(=O)NCc3cccc4c3CCNC4)c2)nnc1-c1ccncn1 | 18.4 nM |  | > 30000 nM

Row | Compound | IC50 (GRK2; ADPGlo GRK2 enzyme assay) | IC50 (GRK2; [2]) | IC50 [1]
47 | C[C@H](NC(=O)c1cccc(NCc2nnc(-c3ccncn3)n2C)c1)C1NCCS1 (stereo partly drawn) |  | 150 nM | 172 nM
48 | Cn1c(CNc2cccc(C(=O)NC3COc4cccc(F)c43)c2)nnc1-c1ccncn1 (stereo not drawn) |  | 12 nM | > 10000 nM
49 | Cn1c(CNc2cccc(C(=O)NC3CCOc4ncccc43)c2)nnc1-c1ccncn1 (stereo not drawn) | 56.7 nM |  | > 30000 nM
50 | COc1ncc(Br)cc1CNC(=O)c1cccc(NCc2nnc(-c3ccncc3)[nH]2)c1 | 10.2 nM |  | 21700 nM
51 | CN(C)S(=O)(=O)c1cccc(F)c1CNC(=O)c1cccc(NCc2nnc(-c3ccncn3)n2C)c1 | 5.78 nM |  | 263 nM
52 | Cn1c(CNc2cccc(C(=O)NCc3nccc(Cl)c3F)c2)nnc1-c1ccncn1 |  | 220 nM | < 39 nM
53 | COc1cccc([C@@H](C)NC(=O)c2cccc(NCc3nnc(-c4ccncc4)n3C)c2)c1 | 7.61 nM |  | > 30000 nM
54 | O=C(NCc1cnc2ccccn12)c1cccc(NCc2nnc(-c3ccncc3)n2CCO)c1 | 5.77 nM |  | > 30000 nM
55 | O=C(NCc1ncccn1)c1cccc(NCc2nnc(-c3ccncc3)[nH]2)c1 |  | 17 nM | > 10000 nM
56 | CCCn1c(CNc2cccc(C(=O)NCc3c(F)cccc3S(=O)(=O)NC)c2)nnc1-c1ccncn1 |  | 22.2 nM | > 3200 nM
57 | Cc1cccc2ncc(CNC(=O)c3cccc(NCc4nnc(-c5ccncc5)n4CCO)c3)n12 | 5.86 nM |  | > 30000 nM
58 | Cc1cccc2ncc(CNC(=O)c3cccc(NCc4nnc(-c5ccncc5)[nH]4)c3)n12 | 8.9 nM |  | > 10200 nM
59 | O=C(N[C@@H]1COCc2c(Cl)cccc21)c1cccc(NCc2nnc(-c3ccncc3)n2CCO)c1 |  | 9.91 nM | 24.2 nM
60 | Cc1nc(C)c(CNC(=O)c2cccc(NCc3nnc(-c4ccncn4)n3C)c2)s1 |  | 26 nM | > 10000 nM
61 | Cc1nncc(CNC(=O)c2cccc(NCc3nnc(-c4ccncn4)n3C)c2)c1C | 14.3 nM |  | 1460 nM
62 | O=C(NC1(c2ccncn2)CC1)c1cccc(NCc2nnc(-c3ccncc3)[nH]2)c1 |  | 13 nM | > 10000 nM
63 | Cn1c(CNc2cccc(C(=O)NCc3cccc4c3CCOC4)c2)nnc1-c1ccncn1 | 8.5 nM |  | > 30000 nM
